In ChEMBL document CHEMBL1201862, “PubChem BioAssay data set” (2004):
Active and inactive are the calls of the source.

Experiments:
[1] = biological target: Intestinal-type alkaline phosphatase (Homo sapiens, UniProt P09923); assay: Dose Response confirmation of uHTS hits from a small molecule inhibitors of human intestinal alkaline phosphatase via a luminescent assay. [Related pubchem assays (depositor defined):AID2544, AID2574]; assay type: functional
[2] = biological target: T1, Neuropeptides B/W receptor type 1 (Homo sapiens, UniProt P48145); assay: Fluorescence-based dose response cell-based high throughput screening assay to identify antagonists of the G-protein coupled receptor 7 (GPR7). [Related pubchem assays: 1952 (Screening assay (GPR7 antagonists).), 1880 (Summary AID.)]; assay type: functional
T1 sequence (P48145 whole entry): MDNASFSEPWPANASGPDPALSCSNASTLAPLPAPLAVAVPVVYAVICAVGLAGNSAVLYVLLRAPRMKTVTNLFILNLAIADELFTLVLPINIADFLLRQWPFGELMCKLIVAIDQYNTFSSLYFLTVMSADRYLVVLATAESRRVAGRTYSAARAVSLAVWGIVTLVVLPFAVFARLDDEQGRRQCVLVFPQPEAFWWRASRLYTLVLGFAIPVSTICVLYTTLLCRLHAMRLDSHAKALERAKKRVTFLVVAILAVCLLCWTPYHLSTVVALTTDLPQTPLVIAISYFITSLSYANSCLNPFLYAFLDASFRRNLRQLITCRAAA

[3] = biological target: T2, Melanin-concentrating hormone receptor 1 (Homo sapiens, UniProt Q99705); assay: Fluorescence-based counterscreen for antagonists of the G-protein coupled receptor 7 (GPR7): cell-based high throughput dose response assay to identify antagonists of the melanin-concentrating hormone receptor 1 (MCHR1).; assay type: functional
T2 sequence (Q99705 whole entry): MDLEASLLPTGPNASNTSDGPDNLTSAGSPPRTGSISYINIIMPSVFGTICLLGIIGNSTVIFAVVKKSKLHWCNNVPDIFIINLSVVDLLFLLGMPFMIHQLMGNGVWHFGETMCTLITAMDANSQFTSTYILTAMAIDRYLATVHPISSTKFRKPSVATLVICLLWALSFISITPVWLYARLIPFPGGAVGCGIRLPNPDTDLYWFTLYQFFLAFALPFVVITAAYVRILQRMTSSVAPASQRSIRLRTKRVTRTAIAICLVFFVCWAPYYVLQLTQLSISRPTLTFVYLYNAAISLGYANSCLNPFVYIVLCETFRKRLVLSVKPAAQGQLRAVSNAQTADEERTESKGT

[4] = Vero E6 cell cytotoxicity, dose response, cytotoxicity control for non-replicating M. tuberculosis project, secondary assay (AID 492998); assay type: functional, VeroE6; settings: Vero C1008
[5] = HepG2 cell cytotoxicity, dose response, cytotoxicity control for non-replicating M. tuberculosis project (AID 489018); assay type: functional; settings: Mycobacterium tuberculosis
[6] = biological target: Neurotensin receptor type 1 (Homo sapiens, UniProt P30989); assay type: functional;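 further: Image-based confirmatory dose-response assay measuring agonist activity at NTR1; NTR1-expressing U2OS osteosarcoma cells imaged for beta-arrestin GFP spot formation; agonist potency where compounds increase beta-arrestin recruitment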
Sequence of Neurotensin receptor type 1 (P30989 whole entry): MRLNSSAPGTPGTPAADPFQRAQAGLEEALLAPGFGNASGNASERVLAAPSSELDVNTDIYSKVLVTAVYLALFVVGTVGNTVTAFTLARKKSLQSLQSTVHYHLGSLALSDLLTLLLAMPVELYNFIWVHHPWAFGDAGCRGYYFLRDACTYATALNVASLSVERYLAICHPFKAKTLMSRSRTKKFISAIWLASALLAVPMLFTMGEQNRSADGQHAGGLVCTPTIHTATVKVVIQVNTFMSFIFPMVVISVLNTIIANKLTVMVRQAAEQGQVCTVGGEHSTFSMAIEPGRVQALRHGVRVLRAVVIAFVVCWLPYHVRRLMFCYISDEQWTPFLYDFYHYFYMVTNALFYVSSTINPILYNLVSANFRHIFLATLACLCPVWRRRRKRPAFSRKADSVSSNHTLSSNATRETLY

[7] = Luminescence Cell-Based Dose Retest to Confirm Inhibitors of Cancer Stem Cells. [Related pubchem assays (depositor defined):AID2717, AID2721]; assay type: functional; settings: Homo sapiens
[8] = THP-1 cell cytotoxicity, dose response, cytotoxicity control for non-replicating M. tuberculosis project (AID 489025); assay type: functional
cells [9] = assay type: functional
[10] = biological target: T2, Melanin-concentrating hormone receptor 1; assay: Late-stage fluorescence-based counterscreen for antagonists of the G-protein coupled receptor 7 (GPR7): cell-based dose response assay to identify antagonists of the melanin-concentrating hormone receptor 1 (MCHR1). [Related pubchem assays (depositor defined):AID1861, AID1880, AID1952, AID2148, AID2251, AID2257, AID485339]; assay type: functional
[11] = biological target: T1, Neuropeptides B/W receptor type 1; assay: GPR7 antagonist potency, late-stage follow-up, cell-based, fluorescence, dose response (AID 463251); assay type: functional
HeLa = assay: HeLa cell cytotoxicity, dose response, cytotoxicity control, 24 h, cherry-picked samples (AID 504726); assay type: functional, cell-based; settings: Homo sapiens;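 further: potency for cytotoxicity as loss of luminescence signal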
Procathepsin L = Procathepsin L (Homo sapiens, UniProt P07711)
Sequence of Procathepsin L (P07711 whole entry): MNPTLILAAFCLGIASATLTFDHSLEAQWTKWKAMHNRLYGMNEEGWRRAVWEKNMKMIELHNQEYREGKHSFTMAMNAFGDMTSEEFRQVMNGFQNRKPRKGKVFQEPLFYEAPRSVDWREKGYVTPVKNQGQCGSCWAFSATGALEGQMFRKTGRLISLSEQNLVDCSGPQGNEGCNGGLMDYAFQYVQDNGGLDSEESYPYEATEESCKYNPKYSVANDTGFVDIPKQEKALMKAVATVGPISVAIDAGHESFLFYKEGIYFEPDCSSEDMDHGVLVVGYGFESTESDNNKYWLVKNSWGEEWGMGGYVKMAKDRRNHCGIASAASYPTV

Aspartyl aminopeptidase = Aspartyl aminopeptidase (Plasmodium falciparum 3D7, UniProt Q8I2J3)
Sequence of Aspartyl aminopeptidase (Q8I2J3 whole entry): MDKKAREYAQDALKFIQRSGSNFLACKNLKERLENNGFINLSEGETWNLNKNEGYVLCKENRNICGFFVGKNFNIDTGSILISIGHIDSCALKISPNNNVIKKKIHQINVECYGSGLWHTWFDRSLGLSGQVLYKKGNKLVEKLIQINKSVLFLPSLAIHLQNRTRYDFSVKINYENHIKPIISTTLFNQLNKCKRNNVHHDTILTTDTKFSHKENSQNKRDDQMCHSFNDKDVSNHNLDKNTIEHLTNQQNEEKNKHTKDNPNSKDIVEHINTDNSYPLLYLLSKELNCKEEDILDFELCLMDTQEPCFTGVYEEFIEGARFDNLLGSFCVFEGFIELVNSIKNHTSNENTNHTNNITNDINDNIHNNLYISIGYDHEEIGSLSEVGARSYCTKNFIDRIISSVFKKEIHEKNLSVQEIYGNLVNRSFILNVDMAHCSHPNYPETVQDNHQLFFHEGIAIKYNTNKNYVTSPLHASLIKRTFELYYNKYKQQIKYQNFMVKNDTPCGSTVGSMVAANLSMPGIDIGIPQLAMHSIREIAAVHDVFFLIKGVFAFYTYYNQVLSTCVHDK

[12] = biological target: T3, Rac GTPase-activating protein 1 (Homo sapiens, UniProt Q9H0H5); assay: MgcRacGAP GTPase-activating activity inhibitors, confirmation, biochemical, ADP Hunter fluorescence, primary and confirmatory (AID 624330); assay type: functional
T3 sequence (Q9H0H5 whole entry): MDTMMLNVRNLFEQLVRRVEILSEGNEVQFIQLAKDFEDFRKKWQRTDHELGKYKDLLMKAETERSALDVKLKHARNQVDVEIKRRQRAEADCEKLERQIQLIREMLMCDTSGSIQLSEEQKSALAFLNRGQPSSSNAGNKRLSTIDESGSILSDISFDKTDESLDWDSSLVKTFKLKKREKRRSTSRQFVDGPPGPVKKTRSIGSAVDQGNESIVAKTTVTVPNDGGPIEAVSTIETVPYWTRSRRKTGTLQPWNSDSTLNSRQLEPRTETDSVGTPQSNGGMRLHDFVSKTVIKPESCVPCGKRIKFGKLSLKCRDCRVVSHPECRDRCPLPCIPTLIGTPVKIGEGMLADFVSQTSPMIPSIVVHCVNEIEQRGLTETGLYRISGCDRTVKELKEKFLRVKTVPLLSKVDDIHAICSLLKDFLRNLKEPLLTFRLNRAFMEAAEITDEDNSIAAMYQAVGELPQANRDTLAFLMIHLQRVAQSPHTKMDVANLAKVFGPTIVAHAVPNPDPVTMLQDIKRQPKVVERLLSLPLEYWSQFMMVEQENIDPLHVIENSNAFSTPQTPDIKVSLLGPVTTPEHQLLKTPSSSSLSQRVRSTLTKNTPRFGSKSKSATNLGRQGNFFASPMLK

[13] = biological target: T4, Small ubiquitin-related modifier 1 (Homo sapiens, UniProt P63165); assay: inhibitors of SUMO1 peptide binding, dose response, biochemical, fluorescence polarization, uHTS hits (AID 624382); assay type: functional; settings: read-out: IC50_Mean
T4 sequence (P63165 whole entry): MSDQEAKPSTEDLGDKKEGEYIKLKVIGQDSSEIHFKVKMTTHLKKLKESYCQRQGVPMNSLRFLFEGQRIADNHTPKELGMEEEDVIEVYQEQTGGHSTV

Genome polyprotein = Genome polyprotein (dengue virus type 2, UniProt P29990); assay: Dengue-2 NS5 methyltransferase inhibitors, primary screen, biochemical, confirmation dose response (AID 588689); assay type: functional
[14] = biological target: T4, Small ubiquitin-related modifier 1; assay: inhibitors of SUMO1 partner interactions, dose response, biochemical, FRET (AID 624383); assay type: functional; settings: read-out: IC50_Mean
ORF 73 = ORF 73 (Human herpesvirus 8, UniProt O40947); assay: inhibitors of C-LANA binding to LBS DNA, dose response, biochemical, fluorescence polarization, cherry-picked samples (AID 504725); parameters: species or system Human gammaherpesvirus 8;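 further: fluorescence polarization of a labeled DNA duplex reporting LANA DNA binding; potency is for inhibitors that block LANA binding to the DNA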
Caspase-6 = biological target: T5, Caspase-6 (Homo sapiens, UniProt P55212); assay: human caspase-6 inhibitors, dose response, biochemical, VEID-R110 fluorescence, cherry-pick (AID 720632)
T5 sequence (P55212 whole entry): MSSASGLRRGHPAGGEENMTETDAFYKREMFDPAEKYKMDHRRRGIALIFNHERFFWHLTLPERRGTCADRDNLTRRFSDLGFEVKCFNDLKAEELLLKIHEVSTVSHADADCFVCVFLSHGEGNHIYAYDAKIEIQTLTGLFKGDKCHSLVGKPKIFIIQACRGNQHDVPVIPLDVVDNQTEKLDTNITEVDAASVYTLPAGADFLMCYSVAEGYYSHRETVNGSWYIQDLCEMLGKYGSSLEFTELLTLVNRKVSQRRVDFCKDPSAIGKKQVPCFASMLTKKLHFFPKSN

[15] = biological target: T6, Eukaryotic translation initiation factor 4H (Homo sapiens, UniProt Q15056); assay: human eIF4H binding inhibitors, primary screen, translation initiation inhibitor project, biochemical, uHTS, fluorescence polarization (AID 2012)
[16] = biological target: T7, Polyadenylate-binding protein 1 (Homo sapiens, UniProt P11940); assay: PABP poly(A) RNA binding inhibitors, primary screen, biochemical, fluorescence polarization, uHTS (AID 2014)
T7 sequence (P11940 whole entry): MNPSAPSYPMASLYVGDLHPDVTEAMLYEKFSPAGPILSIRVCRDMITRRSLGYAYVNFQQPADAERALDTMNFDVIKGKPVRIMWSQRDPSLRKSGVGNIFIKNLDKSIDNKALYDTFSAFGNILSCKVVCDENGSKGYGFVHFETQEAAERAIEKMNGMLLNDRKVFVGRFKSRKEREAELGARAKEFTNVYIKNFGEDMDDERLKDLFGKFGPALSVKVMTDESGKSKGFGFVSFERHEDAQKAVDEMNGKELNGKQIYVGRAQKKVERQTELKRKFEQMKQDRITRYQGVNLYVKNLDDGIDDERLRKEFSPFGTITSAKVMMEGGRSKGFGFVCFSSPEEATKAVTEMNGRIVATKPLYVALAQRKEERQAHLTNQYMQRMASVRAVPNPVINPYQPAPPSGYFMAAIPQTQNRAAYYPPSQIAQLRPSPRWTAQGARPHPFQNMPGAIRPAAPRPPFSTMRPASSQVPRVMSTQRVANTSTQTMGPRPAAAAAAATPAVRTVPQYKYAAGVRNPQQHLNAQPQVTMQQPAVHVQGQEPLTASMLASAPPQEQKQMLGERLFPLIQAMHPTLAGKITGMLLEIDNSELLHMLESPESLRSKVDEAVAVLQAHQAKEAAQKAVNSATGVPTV

[17] = biological target: T8, Heat shock factor protein 1 (Mus musculus, UniProt P38532); assay: HSF1 potentiators in luciferase reporter cells, confirmation, cell-based, NIH3T3, luminescence, dose retest (AID 435004); assay type: functional;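 further: stress induced by proteasome inhibitor MG132 added 30 min after compound; luciferase reporter driven by HSF1 response element in NIH3T3 cells; actives raise luminescence as potentiators of the MG132 stress response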
T8 sequence (P38532 whole entry): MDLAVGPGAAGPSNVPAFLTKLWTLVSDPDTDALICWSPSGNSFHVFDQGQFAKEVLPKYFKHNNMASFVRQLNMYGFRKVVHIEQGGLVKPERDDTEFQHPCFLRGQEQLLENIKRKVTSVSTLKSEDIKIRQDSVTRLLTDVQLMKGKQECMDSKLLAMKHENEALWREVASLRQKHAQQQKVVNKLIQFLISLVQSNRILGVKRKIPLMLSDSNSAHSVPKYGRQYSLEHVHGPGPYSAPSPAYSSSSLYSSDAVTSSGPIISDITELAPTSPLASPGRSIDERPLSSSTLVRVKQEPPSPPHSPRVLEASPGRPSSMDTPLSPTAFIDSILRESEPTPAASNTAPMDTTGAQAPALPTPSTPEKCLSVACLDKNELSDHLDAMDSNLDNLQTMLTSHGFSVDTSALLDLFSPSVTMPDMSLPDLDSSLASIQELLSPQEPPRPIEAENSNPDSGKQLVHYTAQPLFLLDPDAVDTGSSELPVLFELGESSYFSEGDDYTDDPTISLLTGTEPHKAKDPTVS

SUMO-activating enzyme [18] = biological target: T9, SUMO-activating enzyme (Homo sapiens, UniProt Q9UBT2); assay: SUMOylation inhibitor hit validation, confirmation, SUMOylation inhibitor project, biochemical, AlphaScreen (AID 2018); assay type: functional
T9 sequence (Q9UBE0 whole entry): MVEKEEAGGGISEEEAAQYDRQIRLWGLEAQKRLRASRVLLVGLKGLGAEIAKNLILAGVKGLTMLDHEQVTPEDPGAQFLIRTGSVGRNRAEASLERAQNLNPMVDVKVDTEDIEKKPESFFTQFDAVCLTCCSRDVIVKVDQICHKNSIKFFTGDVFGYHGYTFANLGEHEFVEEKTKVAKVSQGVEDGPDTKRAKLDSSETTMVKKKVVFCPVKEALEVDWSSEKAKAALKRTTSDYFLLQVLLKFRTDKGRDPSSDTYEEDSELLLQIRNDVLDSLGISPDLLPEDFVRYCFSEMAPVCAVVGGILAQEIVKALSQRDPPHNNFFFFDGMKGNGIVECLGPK
T9 sequence (Q9UBT2 whole entry): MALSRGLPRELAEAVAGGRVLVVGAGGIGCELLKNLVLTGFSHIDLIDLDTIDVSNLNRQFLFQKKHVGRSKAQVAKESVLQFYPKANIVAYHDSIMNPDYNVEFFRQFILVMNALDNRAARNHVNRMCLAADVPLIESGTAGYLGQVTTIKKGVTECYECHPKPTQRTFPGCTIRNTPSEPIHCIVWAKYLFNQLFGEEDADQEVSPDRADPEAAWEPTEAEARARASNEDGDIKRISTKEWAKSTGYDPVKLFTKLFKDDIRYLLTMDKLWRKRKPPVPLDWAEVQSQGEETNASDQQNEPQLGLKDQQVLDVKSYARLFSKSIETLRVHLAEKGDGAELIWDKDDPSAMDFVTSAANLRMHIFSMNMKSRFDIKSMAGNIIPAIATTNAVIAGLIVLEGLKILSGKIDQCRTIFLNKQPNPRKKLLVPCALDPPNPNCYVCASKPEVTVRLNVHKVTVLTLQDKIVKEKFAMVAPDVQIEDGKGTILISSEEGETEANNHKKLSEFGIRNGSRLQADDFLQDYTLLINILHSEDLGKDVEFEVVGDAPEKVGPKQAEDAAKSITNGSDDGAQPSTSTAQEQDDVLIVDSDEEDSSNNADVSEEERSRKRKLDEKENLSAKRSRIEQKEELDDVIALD

SUMO-activating enzyme [19] = biological target: T9, SUMO-activating enzyme; assay: inhibitors of in vitro SUMOylation cascade, primary screen, biochemical, HTRF, uHTS (AID 2006); assay type: protein-complex assay
[20] = biological target: Induced myeloid leukemia cell differentiation protein Mcl-1 (Homo sapiens, UniProt Q07820); assay type: functional
Sequence of Induced myeloid leukemia cell differentiation protein Mcl-1 (Q07820 whole entry): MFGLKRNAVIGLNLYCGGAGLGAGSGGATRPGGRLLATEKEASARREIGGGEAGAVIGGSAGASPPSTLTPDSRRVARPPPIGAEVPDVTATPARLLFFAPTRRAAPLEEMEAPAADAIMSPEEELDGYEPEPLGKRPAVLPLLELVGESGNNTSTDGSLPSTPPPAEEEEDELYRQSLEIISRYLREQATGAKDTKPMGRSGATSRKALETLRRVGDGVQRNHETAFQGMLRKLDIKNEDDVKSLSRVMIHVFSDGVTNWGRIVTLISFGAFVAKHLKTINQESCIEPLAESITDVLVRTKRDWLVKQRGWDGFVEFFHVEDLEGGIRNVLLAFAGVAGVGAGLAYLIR

[21] = biological target: T7, Polyadenylate-binding protein 1; assay: PABP inhibition in translation initiation, SAR follow-up (AID 435018); assay type: functional
[22] = biological target: T6, Eukaryotic translation initiation factor 4H; assay: eIF4H inhibition in translation initiation, SAR follow-up (AID 435011); assay type: functional
[23] = Luminescence Cell-Based Dose Response HTS to Identify Inhibitors of 5'UTR Stem-Loop Driven Prion Protein mRNA Translation in H4 Neuroglioblastoma Cells. [Related pubchem assays: 1827 (Project Summary), 1813 (Primary HTS)]; assay type: functional
[24] = luciferase reporter signal reduction – luminescence, H4-C neuroglioblastoma cells, dose response (AID 2458); assay type: functional, cell-based;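 further: H4 neuroglioblastoma cells stably carrying a luciferase reporter gene fusion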
[25] = inhibitors of SNCA 5'UTR-driven translation, confirmation, luminescence, H4 neuroglioblastoma cells, dose confirmation (AID 2454); assay type: functional, cell-based;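 further: H4 neuroglioblastoma cells carrying an alpha-synuclein 5'UTR luciferase reporter; potency for inhibition of the luciferase signal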
cells [26] = assay type: functional, cell-based
[27] = inhibitors of firefly luciferase expression or activity, dose response, H4 neuroglioma cells, luminescence (AID 1990); assay type: functional, cell-based
[28] = biological target: T10, Microphthalmia-associated transcription factor (Homo sapiens, UniProt O75030); assay: TRPM1 promoter luciferase signal decrease, dose response, MITF inhibitor project, cell-based, SK-MEL-5, cherry-picked, set 3 (AID 493073); assay type: functional
T10 sequence (O75030 whole entry): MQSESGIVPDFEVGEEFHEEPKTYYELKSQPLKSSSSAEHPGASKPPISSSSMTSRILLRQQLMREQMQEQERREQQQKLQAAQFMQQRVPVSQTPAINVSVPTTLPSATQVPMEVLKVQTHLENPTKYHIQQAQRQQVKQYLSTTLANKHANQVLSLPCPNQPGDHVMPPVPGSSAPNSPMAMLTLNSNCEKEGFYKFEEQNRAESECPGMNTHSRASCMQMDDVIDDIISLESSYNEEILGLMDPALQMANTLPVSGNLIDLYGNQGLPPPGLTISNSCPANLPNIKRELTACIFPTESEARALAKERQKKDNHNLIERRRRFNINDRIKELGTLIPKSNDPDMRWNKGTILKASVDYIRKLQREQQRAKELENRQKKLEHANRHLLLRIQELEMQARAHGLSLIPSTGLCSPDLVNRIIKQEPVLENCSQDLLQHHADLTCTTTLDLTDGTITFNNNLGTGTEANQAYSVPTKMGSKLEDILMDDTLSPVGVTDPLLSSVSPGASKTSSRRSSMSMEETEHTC

Sequence of Intestinal-type alkaline phosphatase (P09923 whole entry): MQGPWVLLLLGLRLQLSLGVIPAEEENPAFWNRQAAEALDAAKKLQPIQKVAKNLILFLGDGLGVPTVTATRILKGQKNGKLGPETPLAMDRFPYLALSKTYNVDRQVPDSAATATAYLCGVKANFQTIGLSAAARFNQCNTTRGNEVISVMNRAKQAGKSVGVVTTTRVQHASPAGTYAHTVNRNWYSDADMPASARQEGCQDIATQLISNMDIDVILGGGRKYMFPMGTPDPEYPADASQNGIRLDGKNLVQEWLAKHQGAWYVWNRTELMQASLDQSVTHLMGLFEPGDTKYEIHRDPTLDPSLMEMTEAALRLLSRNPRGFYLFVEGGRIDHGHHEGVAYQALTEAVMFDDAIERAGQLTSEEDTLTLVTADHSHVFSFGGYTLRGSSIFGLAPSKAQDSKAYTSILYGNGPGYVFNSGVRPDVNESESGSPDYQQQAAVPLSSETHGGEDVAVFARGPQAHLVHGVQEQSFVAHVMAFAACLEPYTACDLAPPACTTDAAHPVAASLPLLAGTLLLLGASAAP

## CC(C)(C)NN/C=C1\C(=O)N(c2ccc(Cl)cn2)C(=O)c2ccccc21
[1]
  IC50: > 100 µM (inactive)

## Cc1ccccc1N(CC(=O)NC1CCCCC1)C(=O)CCCC(=O)Nc1ccccn1
[2]
  IC50: > 43.8 µM (not active)
[3]
  IC50: > 43.8 µM (not active)

## Cc1ccc2c(c1)c1c(n2CC(O)CNC2CCCCC2)CCCC1 (configuration not stated)
[4]
  CC50: > 20 µM (active)
[5]
  CC50: 11.9 µM (active)
[6]
  EC50: 17 µM (active)
[7]
  AC50: 9.21 µM (active)
[8]
  CC50: 12.1 µM (active)
Cells [9]
  IC50: 33.4 µM (active)

## O=C(C1CCCCN1Cc1ccc(Cl)cc1)N1CCN(c2ccc([N+](=O)[O-])cc2)CC1 (configuration not stated)
[10]
  IC50: 1.8 µM (active)
[11]
  IC50: 1.6 µM (active)

## CNC(S)=Nc1cccc(C(=O)OC)c1
HeLa
  AC50: 213 µM (active)

## CCOC(=O)c1ccc(NC(=O)Nn2cnnc2)cc1
Procathepsin L
  IC50: > 59.6 µM (not active)
Aspartyl aminopeptidase
  IC50: 2.09 µM (active)

## CC(=O)Nc1ccc(S(=O)(=O)Nc2nc3ccccc3nc2Nc2ccc(C(=O)O)c(O)c2)cc1
[12]
  IC50: 166 µM (active)
[13]
  IC50: > 66.6 µM (inactive)
Genome polyprotein
  IC50: > 100 µM (active)
[14]
  IC50: 88.1 µM (inactive)
ORF 73
  AC50: 42.3 µM (active)
Caspase-6
  AC50: 13.2 µM (active)

## Cc1ccc(OCC(=O)N/N=C/C=C/c2ccco2)cc1
[15]
  IC50: 15.6 µM (active)
[16]
  IC50: 45.5 µM (active)

## COc1cc(OC)c(S(=O)(=O)N2CCCCC2)cc1S(=O)(=O)N1CCCCC1
[2]
  IC50: 7.02 µM (active)
[10]
  IC50: > 20 µM (inactive)
[3]
  IC50: > 43.8 µM (not active)
[11]
  IC50: > 20 µM (inactive)

## CCc1ccccc1N=C(S)Nn1cnnc1
Procathepsin L
  IC50: > 59.6 µM (not active)
Aspartyl aminopeptidase
  IC50: 3.03 µM (active)

## CCOc1cc(/C=C2/C(=O)ON=C2C)ccc1OCc1ccc(F)cc1
[6]
  EC50: 16.2 µM (active)
[17]
  EC50: 8.12 µM (active)

## CCn1c2ccccc2c2cc(NC(=O)c3coc(=O)c(Br)c3)ccc21
[1]
  IC50: 55.6 µM (inactive)

## NC(=S)n1nc(-c2ccc([N+](=O)[O-])cc2)c(/N=N/c2cccc(Cl)c2)c1O
SUMO-activating enzyme [18]
  IC50: 3.29 µM (active)
SUMO-activating enzyme [19]
  IC50: 51.5 µM (active)
[20]
  IC50: 1.44 µM (active)

## CCOC(=O)Cc1c(Sc2ccccc2)c2cc(C)ccc2n1C
[21]
  IC50: > 100 µM (inactive)
[22]
  IC50: > 100 µM (inactive)

## Cc1ccc(C(=O)c2cccc(N)c2)cc1C
[23]
  EC50: < 0.1 µM (active)
[24]
  EC50: 1.11 µM (active)
[25]
  EC50: 1.46 µM (active)
Cells [26]
  EC50: 2.86 µM (active)
[27]
  EC50: < 0.1 µM (active)
[28]
  AC50: 3.62 µM (active)
